The values that follow come from patent US8436159B2, “Glyphosate resistant class I 5-endolpyruvylshikimate-3-phosphate synthase (EPSPS)” (Monsanto Technology LLC, priority 2003, dated 2013).

Assay [1] concerns the target T1, maize (Zea mays) class I EPSPS, wild type (WT), pMON70461, DNA SEQ ID NO:3 (Zea mays, UniProt O24566).
T1 construct: pMON70461
T1 sequence (O24566 with tags, fused parts or gaps): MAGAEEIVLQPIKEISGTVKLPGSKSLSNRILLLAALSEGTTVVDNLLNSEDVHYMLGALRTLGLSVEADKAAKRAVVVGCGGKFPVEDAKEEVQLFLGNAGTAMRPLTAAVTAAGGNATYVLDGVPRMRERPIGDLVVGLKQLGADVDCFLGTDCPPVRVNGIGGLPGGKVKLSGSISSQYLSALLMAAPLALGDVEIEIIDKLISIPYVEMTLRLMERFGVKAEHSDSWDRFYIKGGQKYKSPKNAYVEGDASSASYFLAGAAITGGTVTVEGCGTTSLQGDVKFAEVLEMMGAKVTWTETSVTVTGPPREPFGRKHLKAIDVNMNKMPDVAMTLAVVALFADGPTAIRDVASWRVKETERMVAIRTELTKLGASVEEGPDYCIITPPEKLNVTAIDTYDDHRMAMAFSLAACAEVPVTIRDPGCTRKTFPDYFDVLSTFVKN
The assay is described as follows: EPSPS steady-state kinetics, wild-type maize EPSPS. The format is biochemical. The procedure:
The wild type and variant EPSPS coding sequences were cloned into a pET-19b base vector (Novagen, Madison, Wis.). The plant (maize) class I EPSPS variants so created were assigned pMON plasmid numbers (Table 2). The variant EPSPS proteins were purified from the E. coli host using the protocols outlined in the pET system manual, 9th edition (Novagen) or by the following method. A single colony or a few microliters from a glycerol stock was inoculated into 4 mL LB medium containing 0.1 mg/mL carbenicillin antibiotic. The culture was incubated with shaking at 37 C for 4 hours. The cultures were stored at 4° C. overnight. The following morning, 1 mL of the overnight culture was used to inoculate 100 mL of fresh LB medium containing 0.1 mg/mL carbenicillin. The cultures were incubated with shaking at 37 C for 4-5 hours, then the cultures were placed at 4° C. for 5-10 minutes. The cultures were then induced with IPTG (1 mM final concentration) and incubated with shaking at 30 C for 4 hours or 20° C. overnight. The cells were harvested by centrifugation at 7000 rpm for 20 minutes at 4° C. The supernatant was removed and the cells were frozen at −70° C. until further use. The proteins were extracted by resuspending the cell pellet in BugBuster reagent (Novagen) using 5 mL reagent per gram of cells. Benzonase (125 Units) was added to the resuspension and the cell suspension was then incubated on a rotating mixer for 20 minutes at room temperature. The cell debris was removed by centrifugation at 10,000 rpm for 20 minutes at room temperature. The supernatant was passed through a 0.45 μm syringe-end filter and transferred to a fresh tube. A pre-packed columns containing 1.25 mL of His-Bind resin was equilibrated with 10 mL of 5 mM imidazole, 0.5 M NaCl, 20 mM Tris-HCl pH 7.9 (1× Binding Buffer). The column was then loaded with the prepared cell extract. After the cell extract had drained, the column was then washed with 10 mL of 1× Binding Buffer, followed with 10 mL of 60 mM imidazole, 0.5 M NaCl, 20 mM Tris-HCl pH 7.9 (1× Wash Buffer). […]

Assay [2] deals with E. coli EPSPS variant, alanine for the glycine at position 96 (G96A). The settings on record: glyphosate-resistant isolate; read-out: apparent Ki for glyphosate; cited from earlier work.

Turning to `O=C(O)CNCP(=O)(O)O` [glyphosate, N-phosphonomethylglycine], the Ki in assay [1] was 500 ± 60 nM; in assay [2], 4 mM.
